Source: the supplement of paper PMC10920090

Key:
MDA-MB-231 [1] = experiment: drug sensitivity score (DSS), cytotoxicity CellTox Green; higher = more cytotoxic; extreme values may be limits of the assay; conditions: 72 h
MDA-MB-231 [2] = experiment: drug sensitivity score (DSS), cell viability CellTiter-Glo; higher = more sensitive; extreme values may be limits of the assay; conditions: 72 h
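Throughout, for drug sensitivity score (DSS), cytotoxicity CellTox Green: DSS summarises each dose–response curve by combining IC50, EC50, maximal inhibition and efficacy across drug concentrations.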

Structure (SMILES) | drug sensitivity score (MDA-MB-231 [1]; shRNA: shPPFIA1_1) [DSS] | drug sensitivity score (MDA-MB-231 [1]; shRNA: shScramble) [DSS] | drug sensitivity score (MDA-MB-231 [2]; shRNA: shPPFIA1_1) [DSS] | drug sensitivity score (MDA-MB-231 [2]; shRNA: shScramble) [DSS]
CC(C)N(C[C@H]1O[C@@H](n2cnc3c(N)ncnc32)[C@H](O)[C@@H]1O)[C@H]1C[C@@H](CCc2nc3cc(C(C)(C)C)ccc3[nH]2)C1 [Pinometostat] | 0 | 0 | 0 | 0
CN(c1ccccc1CNc1nc(Nc2ccc3c(c2)CC(=O)N3)ncc1C(F)(F)F)S(C)(=O)=O | 4.1 | 4 | 2.3 | 5.3
CCN1CCN(Cc2ccc(-c3cc4c(N[C@H](C)c5ccccc5)ncnc4[nH]3)cc2)CC1 [NVP-AEE788] | 0 | 0 | 0.4 | 0.8
N#Cc1ccc(C(c2ccc(C#N)cc2)n2cncn2)cc1 [Letrozole] | 0 | 0 | 0 | 0
N#Cc1ccc(COC[C@H]2O[C@@H](n3c(NCc4ccc(Cl)c(Cl)c4)nc4c(N)ncnc43)[C@H](O)[C@@H]2O)cc1 | 0 | 0 | 2.3 | 1.7
O=C(c1cc(Cc2n[nH]c(=O)c3ccccc23)ccc1F)N1CCN(C(=O)C2CC2)CC1 [Olaparib] | 0 | 0 | 0.1 | 0.8
CC(C)c1cc(-c2n[nH]c(=O)n2-c2ccc3c(ccn3C)c2)c(O)cc1O [Ganetespib] | 1.2 | 3 | 9.9 | 11.5
O=C(Nc1cccc(C(F)(F)F)c1)Nc1cc(S(=O)(=O)NC2CC2)ccc1-c1ccsc1 [AGI-6780] | 0.5 | 0 | 0 | 0
COc1c(C)cnc(Cn2cnc3c(Cl)nc(N)nc32)c1C [BIIB021] | 3.1 | 2.8 | 10.8 | 15.9
CN1CC[C@@H](NC(=O)Nc2ccc(C#N)cc2)C[C@@H]1c1nc2ccccc2[nH]1 [Glasdegib] | 0 | 0 | 0 | 0
Nc1nc(Cl)nc2c1ncn2[C@H]1C[C@H](O)[C@@H](CO)O1 [Cladribine] | 0 | 0 | 0 | 3.3
C=CCn1c(=O)c2cnc(Nc3ccc(N4CCN(C)CC4)cc3)nc2n1-c1cccc(C(C)(C)O)n1 [MK1775] | 9.4 | 7.6 | 5.1 | 7.5
OC[C@H]1O[C@@H](n2cnc3c2N=CNC[C@H]3O)C[C@@H]1O [Pentostatin] | 0 | 0 | 0.5 | 0.2
COCC1(CO)C(=O)C2CCN1CC2 (stereo not drawn) [APR-246] | 0 | 0 | 1.3 | 0
CNC(=O)c1ccccc1Nc1nc(Nc2ccc3c(c2OC)CCC[C@H](N2CCN(CCO)CC2)C3)ncc1Cl | 8.9 | 0 | 4 | 6.1
CC1(C)NC(=O)N(c2ccc([N+](=O)[O-])c(C(F)(F)F)c2)C1=O [Nilutamide] | 0 | 0 | 0 | 0
CCOc1cc2ncc(C#N)c(Nc3ccc(F)c(Cl)c3)c2cc1NC(=O)/C=C/CN(C)C [Pelitinib] | 2.7 | 0 | 14.9 | 21.1
Cc1cnc(-c2ccccc2C(C)C)nc1NCc1ccc(-n2ccnn2)cc1 [ML323] | 0 | 0 | 0 | 1.7
C[C@@H](Oc1cc(-n2cnc3ccc(CN4CCN(C)CC4)cc32)sc1C(N)=O)c1ccccc1C(F)(F)F | 10 | 7 | 1.5 | 5.2
O=C(O)CCCc1ccc(N(CCCl)CCCl)cc1 [Chlorambucil] | 0 | 0 | 0 | 0
CNNCc1ccc(C(=O)NC(C)C)cc1 [Procarbazine] | 0 | 0 | 0 | 0

Structure (SMILES) | drug sensitivity score (MDA-MB-231 [1]; shRNA: shPPFIA1_1) [DSS] | drug sensitivity score (MDA-MB-231 [1]; shRNA: shScramble) [DSS] | drug sensitivity score (MDA-MB-231 [2]; shRNA: shPPFIA1_1) [DSS] | drug sensitivity score (MDA-MB-231 [2]; shRNA: shScramble) [DSS]
Cc1cc(C)c(CNC(=O)c2cc(-c3ccc(CN4CCOCC4)cc3)cc3c2cnn3C2CCCC2)c(=O)[nH]1 [EPZ-5687] | 0 | 0 | 3.5 | 0
Nc1nc(OCc2cc(Br)cs2)c2[nH]cnc2n1 [Lomeguatrib] | 0 | 0 | 0.1 | 0
NC(=O)N1CCC(CC(=O)N2CCC([C@H]3c4ncc(Br)cc4CCc4cc(Cl)cc(Br)c43)CC2)CC1 [Lonafarnib] | 0 | 0 | 2.4 | 3.1
CC(C)C[C@@H](C(=O)N[C@H](C(=O)OC1CCCC1)c1ccccc1)[C@H](O)C(=O)NO [Tosedostat] | 12.4 | 7.8 | 4.2 | 2
O=C(O)c1ccc2c(c1)nc(Nc1cccc(Cl)c1)c1ccncc12 [Silmitasertib] | 0 | 0 | 0 | 3.5
Oc1ccc2c(c1)CC[C@H](c1ccccc1)[C@@H]2c1ccc(OCCN2CCCC2)cc1 [Lasofoxifene] | 0 | 0 | 0 | 0.4
Cc1ccc(C(=O)Nc2ccc(CN3CCN(C)CC3)c(C(F)(F)F)c2)cc1C#Cc1cnc2cccnn12 [Ponatinib] | – | – | 0.1 | 3.6
N#Cc1c(Oc2ccc(F)c(NC(=O)Cc3cccc(C(F)(F)F)c3)c2)ccc2nc(NC(=O)C3CC3)sc12 [TAK-632] | 17.8 | 5.3 | 1.6 | 8.7
C[C@@H]1CCN(C(=O)CC#N)C[C@@H]1N(C)c1ncnc2[nH]ccc12 [Tofacitinib] | 0.9 | 0.9 | 0 | 0
CCS(=O)(=O)N1CCN(c2ccc(Nc3ncc(C(N)=O)c(NC4CC4)n3)cc2)CC1 [Cerdulatinib] | 0 | 0 | 0 | 2.9
CNC(=O)CN1CCC(Oc2cc3c(Nc4cccc(Cl)c4F)ncnc3cc2OC)CC1 [Sapitinib] | 0 | 0 | 0 | 8.5
COc1cccc2cc(-c3nc([C@H]4CC[C@H](C(=O)O)CC4)n4ncnc(N)c34)[nH]c12 [OSI-027] | 0 | 0 | 0 | 2.9
COc1cc(Br)c(Nc2nc(-c3c(C)nc4ncccn34)cs2)c(Br)c1 [PTC-209] | 0 | 0 | 0 | 7.5
Cc1c(CN2CCN(C(=O)[C@H](C)O)CC2)sc2c(N3CCOCC3)nc(-c3cnc(N)nc3)nc12 [Apitolisib] | 0 | 0 | 0 | 5.6
CCCc1cc(C)[nH]c(=O)c1CNC(=O)c1cc(-c2ccnc(N3CCN(C)CC3)c2)cc2c1cnn2C(C)C [GSK343] | 3.8 | 1.9 | 6 | 3.1
CC1(C)CCC(CN2CCN(c3ccc(C(=O)NS(=O)(=O)c4ccc(NCC5CCOCC5)c([N+](=O)[O-])c4)c(Oc4cnc5[nH]ccc5c4)c3)CC2)=C(c2ccc(Cl)cc2)C1 [Venetoclax] | 0 | 0 | 0 | 0
CC(C)[C@H]1C(=O)N[C@@H](CCCNC(=N)N)C(=O)NCC(=O)N[C@@H](CC(=O)O)C(=O)N[C@H](Cc2ccccc2)C(=O)N1C [Cilengitide] | 0 | 0 | 0 | 0
CN1CCN(c2ccc3nc(-c4c(N)c5c(F)cccc5[nH]c4=O)[nH]c3c2)CC1 [Dovitinib] | 0 | 0 | 0 | 0
C[C@@H](C(=O)O)c1ccc(-c2ccccc2)c(F)c1 [Tarenflurbil] | 0 | 0 | 0 | 0
CC(C)Oc1ccc(C(=O)N[C@H](CNC(=O)CN(C)C)Cc2ccc(-c3cn4cccc([C@H](C)O)c4n3)cc2)cc1Cl | 10.3 | 6.2 | 3.5 | 13.6
Nc1ncn([C@H]2C[C@H](O)[C@@H](CO)O2)c(=O)n1 [Decitabine] | 0 | 0 | 0.9 | 1

Structure (SMILES) | drug sensitivity score (MDA-MB-231 [1]; shRNA: shPPFIA1_1) [DSS] | drug sensitivity score (MDA-MB-231 [1]; shRNA: shScramble) [DSS] | drug sensitivity score (MDA-MB-231 [2]; shRNA: shPPFIA1_1) [DSS] | drug sensitivity score (MDA-MB-231 [2]; shRNA: shScramble) [DSS]
COc1cc2c(Oc3ccc4[nH]c(C)cc4c3F)ncnc2cc1OCCCN1CCCC1 [Cediranib] | 0 | 0 | 7 | 7.5
Cn1c(=O)c(F)c(Nc2ccc(I)cc2F)c2c(=O)n(C[C@@H](O)CO)cnc21 [TAK-733] | 6.9 | 8.8 | 4.8 | 12.8
Cc1cc(C(C)Nc2ccccc2)c2nc(N3CCOCC3)cc(=O)n2c1 (stereo not drawn) [TGX-221] | 0.6 | 0 | 0 | 3.2
O=C(c1ccc(F)c(F)c1Nc1ccc(I)cc1F)N1CC(O)([C@@H]2CCCCN2)C1 [Cobimetinib] | 4.4 | 12 | 1.6 | 12.8
O=c1ncn2nc(Sc3ccc(F)cc3F)ccc2c1-c1c(Cl)cccc1Cl [VX 745] | 0 | 0 | 0 | 0
CCc1cc2c(cc1N1CCC(N3CCOCC3)CC1)C(C)(C)c1[nH]c3cc(C#N)ccc3c1C2=O [Alectinib] | 0 | 0 | 0 | 0.4
COc1cc(NS(C)(=O)=O)ccc1Nc1c2ccccc2nc2ccccc12 [Amsacrine] | 2 | 7.4 | 4.8 | 8.6
Cn1cc(-c2ccc3nnc(Sc4ccc5ncccc5c4)n3n2)cn1 [SGX-523] | 0 | 0.9 | 0.9 | 0
COc1cccc2c1C(=O)c1c(O)c3c(c(O)c1C2=O)C[C@@](O)(C(C)=O)C[C@@H]3O[C@H]1C[C@H](N)[C@H](O)[C@H](C)O1 [Daunorubicin] | 0 | 0 | 2.8 | 7.5
COc1ccc(COc2cc3oc(=O)c4cc(C(C)O)ccc4c3cc2OC)cc1 (stereo not drawn) [Palomid-529] | 0 | 0 | 0 | 0
CN(C)Cc1ccc(S(=O)(=O)n2ccc(/C=C/C(=O)NO)c2)cc1 [Resminostat] | 7.5 | 4.4 | 2.5 | 7.1
COc1cc2c(Nc3ccc(Cl)c(Cl)c3F)ncnc2cc1OC[C@@H]1C[C@@H]2CN(C)C[C@@H]2C1 [XL-647] | 0 | 0 | 0 | 0
Nc1cc(F)ccc1NC(=O)/C=C/c1cnn(C/C=C/c2ccccc2)c1 [RGFP966] | 3.1 | 0 | 2.6 | 0.2
C=CC(=O)N1CCC(Oc2cc3c(Nc4ccc(Cl)c(Cl)c4F)ncnc3cc2OC)CC1 [Poziotinib] | 0 | 0 | 3.1 | 0
Cc1cc2c(F)c(Oc3ncnn4cc(OC[C@@H](C)O)c(C)c34)ccc2[nH]1 [Brivanib] | 0 | 0 | 0 | 0
CNC(=O)c1cc(Oc2ccc(NC(=O)Nc3ccc(Cl)c(C(F)(F)F)c3)c(F)c2)ccn1 [Regorafenib] | 8.2 | 4.3 | 3.6 | 7
Nc1nc(F)nc2c1ncn2[C@@H]1O[C@H](CO)[C@@H](O)[C@@H]1O [Fludarabine] | 0 | 0 | 0.4 | 2.5
CC(C)(O)CC(=O)NCCn1ccc2ncnc(Nc3ccc(Oc4cccc(C(F)(F)F)c4)c(Cl)c3)c21 [TAK-285] | 0 | 0 | 0.9 | 0
CCN(CC)CCN(Cc1ccc(-c2ccc(C(F)(F)F)cc2)cc1)C(=O)Cn1c(SCc2ccc(F)cc2)nc(=O)c2c1CCC2 [Darapladib] | 13.1 | 0 | 0 | 0
CN1CCN(C2CCN(C(=O)Nc3cc(Oc4ccc(NC(=O)C5(C(=O)Nc6ccc(F)cc6)CC5)c(F)c4)ccn3)CC2)CC1 [Golvatinib] | 0 | 0 | 0.2 | 2
CCC(C)(C)C(=O)O[C@H]1C[C@@H](C)C=C2C=C[C@H](C)[C@H](CC[C@@H]3C[C@@H](O)CC(=O)O3)[C@H]21 [Simvastatin] | – | – | 0 | 2.8
